Reference: patent US8247211B2, “Glycopeptide antibiotics” (American Cyanamid Company, priority 2001, dated 2012)

What was measured:
Assay in all cases: In vitro antibacterial evaluation: minimum inhibitory concentration (MIC), broth dilution method
Type in all cases: cell-based
Escherichia coli = conditions: 18 hours at 35° C.
Procedure, shortened: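 Inoculum: 5×10^5 CFU/mL. Range: 64-0.06 μg/mL. Medium: Muller-Hinton II […]; NCCLS M7-A2 broth dilution. Endpoint: lowest concentration inhibiting growth. Strains include methicillin-, penicillin- and/or vancomycin-resistant clinical isolates.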

Enterococcus sp. = conditions: 18 hours at 35° C.
Procedure, shortened: (§1)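 Following NCCLS approved standard M7-A2, compounds are serially diluted from 64 to 0.06 μg/mL in Muller-Hinton II […] and inoculated at 5×10^5 CFU/mL; the MIC is the minimum concentration at which growth is inhibited.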

Streptococcus sp. = conditions: 18 hours at 35° C.
Procedure, shortened: as §1

Staphylococcus sp. = test system: Staphylococcus sp.
Procedure, shortened: as §1

[1] = broth dilution, inoculum 5×10^5 CFU/mL

N=C1NCC(C(O)C2NC(=O)C(Cc3ccc(OC4OC(CO)C(OC5OC6COC(Cc7ccccc7)OC6C(O)C5O)C(O)C4O)cc3)NC(=O)C(CC3CCCCC3)NC(=O)CNC(=O)C(CO)NC(=O)C(C(O)C3CNC(=N)N3C3OC(CO)C(O)C(O)C3O)NC2=O)N1 (stereo not drawn) [Example 200, Cyclo[3-cyclohexylalanyl-O-[4-O-[4,6-O-phenethylidene-hexopyranosyl]hexopyranosyl]tyrosyl-3-(2-iminoimidazolidin-4-yl)seryl-3-(3-hexopyranosyl-2-iminoimidazolidin-4-yl)serylserylglycyl]]
0.5 µg/mL: MIC Enterococcus faecalis (GC 2242) (Enterococcus sp.; Enterococcus faecalis (GC 2242)) | MIC Enterococcus faecalis (GC 2242) (Enterococcus sp.; [1])
0.12 µg/mL: MIC Streptococcus agalactiae (GC 4564) (Streptococcus sp.; Streptococcus agalactiae (GC 4564)) | MIC Streptococcus agalactiae (GC 4564) (Streptococcus sp.; [1])
4 µg/mL: MIC Enterococcus avium (GC 4558) (Enterococcus sp.; Enterococcus avium (GC 4558)) | MIC Enterococcus faecalis (ATCC 29212) (Enterococcus sp.; Enterococcus faecalis (ATCC 29212)) | MIC Enterococcus faecalis (GC 2691) (Enterococcus sp.; Enterococcus faecalis (GC 2691)) | MIC Enterococcus faecalis (GC 4553) (Enterococcus sp.; Enterococcus faecalis (GC 4553)) | MIC Enterococcus faecalis (GC 4554) (Enterococcus sp.; Enterococcus faecalis (GC 4554)) | MIC Enterococcus faecium (GC 2243) (Enterococcus sp.; Enterococcus faecium (GC 2243)) | MIC Enterococcus faecium (GC 4556) (Enterococcus sp.; Enterococcus faecium (GC 4556)) | MIC Enterococcus avium (GC 4558) (Enterococcus sp.; [1]) | MIC Enterococcus faecalis (ATCC 29212) (Enterococcus sp.; [1]) | MIC Enterococcus faecalis (GC 2691) (Enterococcus sp.; [1]) | MIC Enterococcus faecalis (GC 4553) (Enterococcus sp.; [1]) | MIC Enterococcus faecalis (GC 4554) (Enterococcus sp.; [1]) | MIC Enterococcus faecium (GC 2243) (Enterococcus sp.; [1]) | MIC Enterococcus faecium (GC 4556) (Enterococcus sp.; [1])
1 µg/mL: MIC Escherichia coli (GC 4560) (Escherichia coli; Escherichia coli (GC 4560)) | MIC Staphylococcus aureus (ATCC 29213) (Staphylococcus sp.; strain ATCC 29213) | MIC Staphylococcus aureus (GC 3051) (Staphylococcus sp.; strain GC 3051) | MIC Staphylococcus aureus (GC 4541) (Staphylococcus sp.; strain GC 4541) | MIC Staphylococcus aureus (GC 4542) (Staphylococcus sp.; strain GC 4542) | MIC Staphylococcus aureus-SMITH (GC 4543) (Staphylococcus sp.; strain GC 4543) | MIC Staphylococcus aureus (GC 4545) (Staphylococcus sp.; strain GC 4545) | MIC Staphylococcus haemolyticus (GC 4546) (Staphylococcus sp.; strain GC 4546) | MIC Coagulase Negative Staphylococcus (GC 4548) (Staphylococcus sp.; strain GC 4548) | MIC Coagulase Negative Staphylococcus (GC 4549) (Staphylococcus sp.; strain GC 4549)
32 µg/mL: MIC Escherichia coli (ATCC 25922) (Escherichia coli; Escherichia coli (ATCC 25922)) | MIC Escherichia coli (GC 4559) (Escherichia coli; Escherichia coli (GC 4559))
<0.06 µg/mL: MIC Streptococcus pneumoniae (ATCC 6301) (Streptococcus sp.; Streptococcus pneumoniae (ATCC 6301)) | MIC Streptococcus pneumoniae (GC 1894) (Streptococcus sp.; Streptococcus pneumoniae (GC 1894)) | MIC Streptococcus pneumoniae (GC 4565) (Streptococcus sp.; Streptococcus pneumoniae (GC 4565)) | MIC Streptococcus pyogenes (GC 4563) (Streptococcus sp.; Streptococcus pyogenes (GC 4563)) | MIC Streptococcus pneumoniae (ATCC 6301) (Streptococcus sp.; [1]) | MIC Streptococcus pneumoniae (GC 1894) (Streptococcus sp.; [1]) | MIC Streptococcus pneumoniae (GC 4565) (Streptococcus sp.; [1]) | MIC Streptococcus pyogenes (GC 4563) (Streptococcus sp.; [1])
2 µg/mL: MIC Enterococcus faecalis (GC 3059) (Enterococcus sp.; Enterococcus faecalis (GC 3059)) | MIC Enterococcus faecalis (GC 4552) (Enterococcus sp.; Enterococcus faecalis (GC 4552)) | MIC Enterococcus faecalis (GC 6189) (Enterococcus sp.; Enterococcus faecalis (GC 6189)) | MIC Enterococcus faecium (GC 4557) (Enterococcus sp.; Enterococcus faecium (GC 4557)) | MIC Enterococcus faecalis (GC 3059) (Enterococcus sp.; [1]) | MIC Enterococcus faecalis (GC 4552) (Enterococcus sp.; [1]) | MIC Enterococcus faecalis (GC 6189) (Enterococcus sp.; [1]) | MIC Enterococcus faecium (GC 4557) (Enterococcus sp.; [1]) | MIC Staphylococcus aureus (GC 1131) (Staphylococcus sp.; strain GC 1131) | MIC Staphylococcus aureus (GC 3053) (Staphylococcus sp.; strain GC 3053) | MIC Staphylococcus aureus (GC 4544) (Staphylococcus sp.; strain GC 4544) | MIC Coagulase Negative Staphylococcus (GC 4547) (Staphylococcus sp.; strain GC 4547) | MIC Coagulase Negative Staphylococcus (GC 4551) (Staphylococcus sp.; strain GC 4551)
